Measured values: article PMC11044151, “Development of Half-Sandwich Ru, Os, Rh, and Ir Complexes Bearing the Pyridine-2-ylmethanimine Bidentate Ligand Derived from 7-Chloroquinazolin-4(3H)-one with Enhanced Antiproliferative Activity” (ACS Omega, 2024)

Legend:
A549 = assay: Neutral red uptake antiproliferative assay, A549; conditions: for IC50: read-out: IC50 A549, exposure time 72 h, n = 3, 95% CI given; for activity factor IC50(1)/IC50(3a–4d), A549: vs corresponding amine (R)-1 or (S)-1, 72 h
From the text: (§1) To assess the impact of conjugating half-sandwich complexes with amines 1 via an imine-pyridine ligand on biological activity, we examined the antiproliferative potential of (R)- and (S)-1 and organometallic conjugates 3a–d and 4a–d in selected human cancer cell lines: alveolar basal epithelial cell adenocarcinoma (A549), colorectal adenocarcinomas (Colo205 and SW620), colorectal carcinoma (HCT116), hepatocellular carcinoma (HepG2), and breast adenocarcinoma (MCF7). The choice of cell lines was dictated by results of previously published clinical trials on ispinesib.[49],[50]
(§2) Cell lines used in this study were purchased from the American Type Culture Collection via LGC Standards. Human normal lung fibroblasts (MRC-5), alveolar basal epithelial cell adenocarcinoma (A549), colorectal adenocarcinoma (Colo205), hepatocellular carcinoma (HepG2), breast adenocarcinoma (MCF7), and colorectal adenocarcinoma (SW620) and its MDR variants[55] were cultured in standard conditions (37 °C, 5% CO2, 100% relative humidity) in high glucose DMEM medium supplemented with GlutaMax, HEPES (ThermoFisher Scientific) and 10% fetal bovine serum (EURx, Poland). All cell lines were tested for Mycoplasma contamination using a MycoProbe mycoplasma detection kit (R&D System).
(§3) For this purpose, neutral red uptake assay was performed. 10^4 of cells were seeded per well of a 96-well plate and left overnight to allow cells to attach to the surface. Then, the cells were exposed to a desired concentration of tested compounds. Stock solutions were prepared in DMSO and were used immediately after preparation. The final concentration of DMSO was constant and nontoxic (0.1% v/v). After 70 h of culture, neutral red was added to the final concentration of 1 mM. After 2 h of incubation with the dye, the medium was aspirated and cells were washed with ice-cold PBS. The dye was released using 100 μL of the solubilizer (1% acetic acid in 50% ethanol) on an orbital shaker (10 min). The absorbance at 540 nm was measured using an EnVision multilabel plate reader (PerkinElmer). […] The IC90 and IC50 parameters were calculated using GraphPad Prism v9 software using the five-parameter nonlinear logistic regression model.

SW620 cells = assay: Cell cycle distribution by flow cytometry, SW620; type: cell-based, human; conditions: concentration equal to IC75 of (S)-1 / (R)-1, mean ± SEM, n = 3; for Cell cycle fraction G1, 24 h / Cell cycle fraction G2/M, 24 h / Cell cycle fraction S, 24 h: SW620, 24 h; for Cell cycle fraction G1, 48 h / Cell cycle fraction G2/M, 48 h / Cell cycle fraction S, 48 h: SW620, 48 h
Experimental: Ispinesib leads to the formation of monopolar mitotic spindles and a blockade of chromosome segregation in cancer cells. Using flow cytometry, we assessed the cell cycle distribution in the SW620 and SW620E cells exposed to the studied compounds for 24 and 48 h. […] Both complexes, 3c and 3d, decrease the percentage of cells in the G1/G0 phase and increase the percentage in the S and G2/M phases. […] Furthermore, prolonged exposure to the compounds increases the percentage of cells in the G2/M phase, with the most intensive effect observed for 3c and 3d.
SW620 and SW620E cells lines (vulnerable and resistant variants, respectively) were seeded in 6-well plates at a density of 10^5 cells per well. […] After 24 h, the cells were trypsinized and fixed with ice-cold 70% v/v ethanol. The cells were stained with 75 μM propidium iodide with 50 Kunitz units of RNase A in PBS for 30 min at 37 °C. All samples were analyzed using a LSRII flow cytometer (Becton Dickinson) at a PE channel ([…]). Cell cycle phase distribution was determined using a built-in cell cycle module (Watson pragmatic algorithm) by FlowJo 7.6.1 software.

SW620 = assay: Neutral red uptake antiproliferative assay, SW620; type: cell-based, human; conditions: for IC50: exposure time 72 h, n = 3, 95% CI given; for activity factor IC50(1)/IC50(3a–4d), SW620: vs corresponding amine (R)-1 or (S)-1, 72 h
From the text: as §1, §2, §3

SW620V = assay: Neutral red uptake antiproliferative assay, MDR line SW620V; type: cell-based, human; conditions: for IC50: exposure time 72 h, n = 3, ABCB1-overexpressing MDR line; for activity factor IC50(1)/IC50(3a–4d), SW620V: vs corresponding amine (R)-1 or (S)-1, 72 h
From the text: (§4) Next, we evaluated the cytotoxicity of the synthesized complexes toward the panel of six multidrug-resistant (MDR) cell lines derived from SW620 and characterized by the overexpression of various ABC proteins, namely, ABCG2 (SW620C and SW620Mito), ABCC1 (SW620M and SW620E), and ABCB1 (SW620D, SW620E, and SW620V) (Table 3, Figures S29 and S32). […] The activity of the complexes derived from the ligand (S)-2 is also considerably higher than that of the compounds containing the ligand (R)-2. The cytotoxicity of both rhodium 4c and iridium 4d complexes is higher than that of amine (S)-1. In the case of 4c, the increase in cytotoxicity is low, with the highest value of 3.7-fold for the SW620Mito line. […] Compound 4d also exerts a 2.1- and 2.6-fold higher cytotoxicity than […] against the SW620C and SW620D lines.
(§5) For this purpose, neutral red uptake assay was performed. […] The results were presented as a percentage of control.

SW620C = assay: Neutral red uptake antiproliferative assay, MDR line SW620C; type: cell-based, human; conditions: for IC50: exposure time 72 h, n = 3, ABCG2-overexpressing MDR line; for activity factor IC50(1)/IC50(3a–4d), SW620C: vs corresponding amine (R)-1 or (S)-1, 72 h
From the text: as §4, §5

SW620Mito = assay: Neutral red uptake antiproliferative assay, MDR line SW620Mito; type: cell-based, human; conditions: for IC50: exposure time 72 h, n = 3, ABCG2-overexpressing MDR line; for activity factor IC50(1)/IC50(3a–4d), SW620Mito: vs corresponding amine (R)-1 or (S)-1, 72 h
From the text: as §4, §5

HCT116 = assay: cells; conditions: for IC50: read-out: IC50 HCT116, exposure time 72 h, n = 3, 95% CI given; for activity factor IC50(1)/IC50(3a–4d), HCT116: vs corresponding amine (R)-1 or (S)-1, 72 h
From the text: as §1, §3

SW620D = assay: Neutral red uptake antiproliferative assay, MDR line SW620D; type: cell-based, human; conditions: for IC50: exposure time 72 h, n = 3, ABCB1-overexpressing MDR line; for activity factor IC50(1)/IC50(3a–4d), SW620D: vs corresponding amine (R)-1 or (S)-1, 72 h
From the text: as §4, §5

SW620M = assay: Neutral red uptake antiproliferative assay, MDR line SW620M; type: cell-based, human; conditions: for IC50: exposure time 72 h, n = 3, ABCC1-overexpressing MDR line; for activity factor IC50(1)/IC50(3a–4d), SW620M: vs corresponding amine (R)-1 or (S)-1, 72 h
From the text: as §4, §5

SW620E = assay: Neutral red uptake antiproliferative assay, MDR line SW620E; type: cell-based, human; conditions: for IC50: exposure time 72 h, n = 3, ABCC1- and ABCB1-overexpressing MDR line; for activity factor IC50(1)/IC50(3a–4d), SW620E: vs corresponding amine (R)-1 or (S)-1, 72 h
From the text: as §4, §5

Colo205 = assay: cells; conditions: for IC50: read-out: IC50 Colo205, exposure time 72 h, n = 3, 95% CI given; for activity factor IC50(1)/IC50(3a–4d), Colo205: vs corresponding amine (R)-1 or (S)-1, 72 h
From the text: as §1, §2, §3

MCF7 = assay: cells; conditions: for IC50: read-out: IC50 MCF7, exposure time 72 h, n = 3, 95% CI given; for activity factor IC50(1)/IC50(3a–4d), MCF7: vs corresponding amine (R)-1 or (S)-1, 72 h
From the text: as §1, §2, §3

HepG2 = assay: cells; conditions: for IC50: read-out: IC50 HepG2, exposure time 72 h, n = 3, 95% CI given; for activity factor IC50(1)/IC50(3a–4d), HepG2: vs corresponding amine (R)-1 or (S)-1, 72 h
From the text: as §1, §2, §3

| IC50 (A549) | activity factor IC50(1)/IC50(3a–4d), A549 (A549) | IC50 (SW620) | activity factor IC50(1)/IC50(3a–4d), SW620 (SW620) | IC50 (SW620V) | activity factor IC50(1)/IC50(3a–4d), SW620V (SW620V) | IC50 (SW620C) | activity factor IC50(1)/IC50(3a–4d), SW620C (SW620C) | IC50 (SW620Mito) | activity factor IC50(1)/IC50(3a–4d), SW620Mito (SW620Mito) | IC50 (HCT116) | activity factor IC50(1)/IC50(3a–4d), HCT116 (HCT116) | IC50 (SW620D) | activity factor IC50(1)/IC50(3a–4d), SW620D (SW620D) | Structure (SMILES) | Cell cycle fraction G1, 24 h (SW620 cells) | Cell cycle fraction G2/M, 24 h (SW620 cells) | Cell cycle fraction S, 24 h (SW620 cells) | Cell cycle fraction G1, 48 h (SW620 cells) | Cell cycle fraction G2/M, 48 h (SW620 cells) | Cell cycle fraction S, 48 h (SW620 cells) | further results |
| --- | --- | --- | --- | --- | --- | --- | --- | --- | --- | --- | --- | --- | --- | --- | --- | --- | --- | --- | --- | --- | --- |
| 3790 nM | (1.86) | 2240 nM | (1.28) | 2980 nM | (1.15) | 2970 nM | (1.12) | 1050 nM | (3.72) | 2940 nM | (2.74) | 6070 nM | (0.684) | CC(C)[C@H](N=Cc1ccccn1)c1nc2cc(Cl)ccc2c(=O)n1Cc1ccccc1.Cc1c(C)c(C)[c-](C)c1C.F[P-](F)(F)(F)(F)F.[Cl-].[Rh+3] [Compound 4c, [(Cp*)Rh((S)-2)Cl]PF6] | 52.6 ± 1.9% | 32.7 ± 2.0% | 13.6 ± 0.3% | 41.6 ± 1.0% | 43.8 ± 1.4% | 13.7 ± 0.4% | increase in cytotoxicity vs corresponding amine 1, SW620Mito (SW620Mito; rounded value): 3.7 fold; IC50 (SW620M): 2250 nM; activity factor IC50(1)/IC50(3a–4d), SW620M (SW620M): (1.54); IC50 (SW620E): 6200 nM; activity factor IC50(1)/IC50(3a–4d), SW620E (SW620E): (0.653); IC50 (Colo205): 2890 nM; activity factor IC50(1)/IC50(3a–4d), Colo205 (Colo205): (2.10); IC50 (MCF7): 1500 nM; activity factor IC50(1)/IC50(3a–4d), MCF7 (MCF7): (2.61); IC50 (HepG2): 1150 nM; activity factor IC50(1)/IC50(3a–4d), HepG2 (HepG2): (2.09) |
| 2190 nM | (3.22) | 2310 nM | (1.24) | 9300 nM | (0.370) | 4540 nM | (0.738) | 3780 nM | (1.03) | 823 nM | (9.79) | 13500 nM | (0.307) | CC(C)[C@H](N=Cc1ccccn1)c1nc2cc(Cl)ccc2c(=O)n1Cc1ccccc1.Cc1ccc(C(C)C)cc1.F[P-](F)(F)(F)(F)F.[Cl-].[Os+2] [Compound 4b, [(cym)Os((S)-2)Cl]PF6] | 51.8 ± 0.2% | 32.6 ± 0.3% | 15.0 ± 0.5% | 41.8 ± 0.4% | 42.7 ± 0.6% | 14.9 ± 0.4% | increased cytotoxicity vs corresponding amine 1, HCT116 (HCT116): 10 fold; IC50 (SW620M): 2450 nM; activity factor IC50(1)/IC50(3a–4d), SW620M (SW620M): (1.41); IC50 (SW620E): 12800 nM; activity factor IC50(1)/IC50(3a–4d), SW620E (SW620E): (0.316); increased cytotoxicity vs corresponding amine 1, Colo205 (Colo205): 7 fold; IC50 (Colo205): 904 nM; activity factor IC50(1)/IC50(3a–4d), Colo205 (Colo205): (6.71); increased cytotoxicity vs corresponding amine 1, MCF7 (MCF7): 9 fold; IC50 (MCF7): 438 nM; activity factor IC50(1)/IC50(3a–4d), MCF7 (MCF7): (8.93); IC50 (HepG2): 1130 nM; activity factor IC50(1)/IC50(3a–4d), HepG2 (HepG2): (2.12) |
